Inconclusive results and toxic doses are left out.
Tested on: BDF1 mice, P388 leukemia ip, median survival T/C
Assay: NCI In Vivo Anticancer Drug Screen. Data for tumor model P388 Leukemia (intraperitoneal) in B6D2F1 (BDF1) mice
Details: endpoint: median survival time, higher = longer survival
Method in brief: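 Read-out is survival of treated animals expressed relative to the vehicle group, as a T/C ratio.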

[1] = dose: 400.0 mg/kg/injection, schedule: Q01DX009 (ip), vehicle: saline

## O=C(Cn1cc(F)c(=O)[nH]c1=O)c1cccs1
dose: 100.0 mg/kg/injection, schedule: Q01DX009 (ip), vehicle: saline
  T/C: 100 % of control
dose: 100.0 mg/kg/injection, schedule: Q04DX003 (ip), vehicle: saline
  T/C: 95 % of control
dose: 200.0 mg/kg/injection, schedule: Q01DX009 (ip), vehicle: saline
  T/C: 100 % of control
dose: 200.0 mg/kg/injection, schedule: Q04DX003 (ip), vehicle: saline
  T/C: 90 % of control
[1]
  T/C: 95 % of control
dose: 400.0 mg/kg/injection, schedule: Q04DX003 (ip), vehicle: saline
  T/C: 90 % of control

## COc1cc2c(c(OC)c1OC)-c1ccc(OC)c(=O)cc1[C@@H](NC(=O)CF)CC2
dose: 0.09 mg/kg/injection, schedule: Q01DX009 (ip), vehicle: saline with Tween-80
  T/C: 187 % of control
dose: 0.09 mg/kg/injection, schedule: Q01DX009 (ip), vehicle: saline
  T/C: 188 % of control
dose: 0.18 mg/kg/injection, schedule: Q01DX009 (ip), vehicle: saline with Tween-80
  T/C: 232 % of control
dose: 0.18 mg/kg/injection, schedule: Q01DX009 (ip), vehicle: saline
  T/C: 257 % of control
dose: 0.37 mg/kg/injection, schedule: Q01DX009 (ip), vehicle: saline
  T/C: 103 % of control
dose: 46.2 micrograms/kg/injection, schedule: Q01DX009 (ip), vehicle: saline with Tween-80
  T/C: 158 % of control
dose: 185.0 micrograms/kg/injection, schedule: Q01DX009 (ip), vehicle: saline with Tween-80
  T/C: 89 % of control
dose: 370.0 micrograms/kg/injection, schedule: Q01DX009 (ip), vehicle: saline with Tween-80
  T/C: 247 % of control

## COc1cccc(CNc2ccc(C)c(Cl)c2)c1OC
dose: 12.5 mg/kg/injection, schedule: Q01DX009 (ip), vehicle: gum acacia
  T/C: 92 % of control
dose: 25.0 mg/kg/injection, schedule: Q01DX009 (ip), vehicle: gum acacia
  T/C: 107 % of control
dose: 50.0 mg/kg/injection, schedule: Q01DX009 (ip), vehicle: gum acacia
  T/C: 103 % of control
dose: 100.0 mg/kg/injection, schedule: Q04DX003 (ip), vehicle: gum acacia
  T/C: 91 % of control
dose: 200.0 mg/kg/injection, schedule: Q04DX003 (ip), vehicle: gum acacia
  T/C: 95 % of control
dose: 400.0 mg/kg/injection, schedule: Q04DX003 (ip), vehicle: gum acacia
  T/C: 95 % of control

## Cc1ccc(C2NC(=S)N3C(c4ccc(C)cc4)NC(=S)N23)cc1 (stereo unspecified)
dose: 50.0 mg/kg/injection, schedule: Q01DX009 (ip), vehicle: Klucel (hydroxypropylcellulose) (HPC)
  T/C: 98 % of control
dose: 100.0 mg/kg/injection, schedule: Q01DX009 (ip), vehicle: Klucel (hydroxypropylcellulose) (HPC)
  T/C: 111 % of control
dose: 200.0 mg/kg/injection, schedule: Q01DX009 (ip), vehicle: Klucel (hydroxypropylcellulose) (HPC)
  T/C: 111 % of control
dose: 400.0 mg/kg/injection, schedule: Q01DX009 (ip), vehicle: Klucel (hydroxypropylcellulose) (HPC)
  T/C: 154 % of control
[1]
  T/C: 112 % of control
dose: 600.0 mg/kg/injection, schedule: Q01DX009 (ip), vehicle: saline
  T/C: 120 % of control

## NC(N)=Nc1ccc(C(=O)Oc2ccc(OC(=O)c3cccc(N=C(N)N)c3)cc2)cc1
dose: 50.0 mg/kg/injection, schedule: Q01DX009 (ip), vehicle: water
  T/C: 96 % of control
dose: 50.0 mg/kg/injection, schedule: Q04DX003 (ip), vehicle: water
  T/C: 103 % of control
dose: 100.0 mg/kg/injection, schedule: Q01DX009 (ip), vehicle: water
  T/C: 96 % of control
dose: 100.0 mg/kg/injection, schedule: Q04DX003 (ip), vehicle: water
  T/C: 94 % of control
dose: 200.0 mg/kg/injection, schedule: Q01DX009 (ip), vehicle: water
  T/C: 99 % of control
dose: 200.0 mg/kg/injection, schedule: Q04DX003 (ip), vehicle: water
  T/C: 100 % of control
dose: 400.0 mg/kg/injection, schedule: Q01DX009 (ip), vehicle: water
  T/C: 114 % of control
dose: 400.0 mg/kg/injection, schedule: Q04DX003 (ip), vehicle: water
  T/C: 105 % of control

## CNCC(=O)NC(CO)C(=O)NC1C(C(N)=O)OC(n2ccc(N)nc2=O)C(O)C1O (stereo unspecified)
dose: 0.75 mg/kg/injection, schedule: Q04DX003 (ip), vehicle: saline
  T/C: 103 % of control
dose: 1.5 mg/kg/injection, schedule: Q04DX003 (ip), vehicle: saline
  T/C: 112 % of control
dose: 3.0 mg/kg/injection, schedule: Q04DX003 (ip), vehicle: saline
  T/C: 102 % of control

## [O-][n+]1c(-c2ccccc2)c(C(O)c2ccccc2)nc2ccccc21 (stereo unspecified)
dose: 100.0 mg/kg/injection, schedule: Q01DX001 (ip), vehicle: saline with Tween-80
  T/C: 105 % of control
dose: 200.0 mg/kg/injection, schedule: Q01DX001 (ip), vehicle: saline with Tween-80
  T/C: 94 % of control
dose: 400.0 mg/kg/injection, schedule: Q01DX001 (ip), vehicle: saline with Tween-80
  T/C: 96 % of control

## CCOC(=O)C(C)(C(=O)OCC)c1ccccc1
dose: 100.0 mg/kg/injection, schedule: Q01DX009 (ip), vehicle: saline with Tween-80
  T/C: 104 % of control
dose: 100.0 mg/kg/injection, schedule: Q04DX003 (ip), vehicle: saline with Tween-80
  T/C: 115 % of control
dose: 200.0 mg/kg/injection, schedule: Q01DX009 (ip), vehicle: saline with Tween-80
  T/C: 113 % of control
dose: 200.0 mg/kg/injection, schedule: Q04DX003 (ip), vehicle: saline with Tween-80
  T/C: 110 % of control
dose: 400.0 mg/kg/injection, schedule: Q01DX009 (ip), vehicle: saline with Tween-80
  T/C: 118 % of control
dose: 400.0 mg/kg/injection, schedule: Q04DX003 (ip), vehicle: saline with Tween-80
  T/C: 115 % of control
